Test results: article PMC9963398, “Discovery of New Quinolone-Based Diarylamides as Potent B-RAF^V600E/C-RAF Kinase Inhibitors Endowed with Promising In Vitro Anticancer Activity” (International Journal of Molecular Sciences, 2023)

Legend:
B-RAF^V600E = biological target: T1, B-RAF^V600E (Homo sapiens, UniProt P15056, V600E); assay: HotSpot kinase assay (RBC), B-RAF^V600E; assay type: biochemical; details: 10 µM ATP, 10-dose singlicate IC50 mode
T1 construct: purchased Reaction Biology Corporation (RBC), Kinase HotSpot service

786-0 = assay: NCI-60 five-dose SRB assay; assay type: cell-based; details: Homo sapiens; 786-0, Renal cancer, five-dose test
Protocol: (§1) The anticancer screening of target compounds over a full panel of 60 human cancer cell lines was carried out using Sulforhodamine B (SRB) assay at the National Cancer Institute (NCI), Bethesda, Maryland, USA, employing the standard protocol.

A498 = assay: NCI-60 five-dose SRB assay; assay type: cell-based; details: Homo sapiens; A498, Renal cancer, five-dose test
Protocol: as §1

BT-549 = assay: NCI-60 five-dose SRB assay; assay type: cell-based; details: Homo sapiens; BT-549, Breast cancer, five-dose test
Protocol: as §1

CAKI-1 = assay: NCI-60 five-dose SRB assay; assay type: cell-based; details: Homo sapiens; CAKI-1, Renal cancer, five-dose test
Protocol: as §1

CCRF-CEM = assay: NCI-60 five-dose SRB assay; assay type: cell-based; details: Homo sapiens, Leukemia, five-dose test
Protocol: as §1

COLO 205 = assay: NCI-60 five-dose SRB assay; assay type: cell-based; details: Homo sapiens; COLO 205, Colon cancer, five-dose test
Protocol: as §1

DU-145 = assay: NCI-60 five-dose SRB assay; assay type: cell-based; details: Homo sapiens; DU-145, Prostate cancer, five-dose test
Protocol: as §1

EKVX = assay: NCI-60 five-dose SRB assay; assay type: cell-based; details: Homo sapiens, NSCL cancer, five-dose test
Protocol: as §1

HCC-2998 = assay: NCI-60 five-dose SRB assay; assay type: cell-based; details: Homo sapiens; HCC-2998, Colon cancer, five-dose test
Protocol: as §1

HCT-116 = assay: NCI-60 five-dose SRB assay; assay type: cell-based; details: Homo sapiens; HCT-116, Colon cancer, five-dose test
Protocol: as §1

HCT-15 = assay: NCI-60 five-dose SRB assay; assay type: cell-based; details: Homo sapiens; HCT-15, Colon cancer, five-dose test
Protocol: as §1

HOP-92 = assay: NCI-60 five-dose SRB assay; assay type: cell-based; details: Homo sapiens; HOP-92, NSCL cancer, five-dose test
Protocol: as §1

HS 578T = assay: NCI-60 five-dose SRB assay; assay type: cell-based; details: Homo sapiens, Breast cancer, five-dose test
Protocol: as §1

HT29 = assay: NCI-60 five-dose SRB assay; assay type: cell-based; details: Homo sapiens, HT-29; HT29, Colon cancer, five-dose test
Protocol: as §1

IGROV1 = assay: NCI-60 five-dose SRB assay; assay type: cell-based; details: Homo sapiens, IGROV-1; IGROV1, Ovarian cancer, five-dose test
Protocol: as §1

LOX IMVI = assay: NCI-60 five-dose SRB assay; assay type: cell-based; details: Homo sapiens, Melanoma, five-dose test
Protocol: as §1

MALME-3M = assay: NCI-60 five-dose SRB assay; assay type: cell-based; details: Homo sapiens, Melanoma, five-dose test
Protocol: as §1

MCF7 = assay: NCI-60 five-dose SRB assay; assay type: cell-based; details: Homo sapiens; MCF7, Breast cancer, five-dose test
Protocol: as §1

MDA-MB-435 = assay: NCI-60 five-dose SRB assay; assay type: cell-based; details: Homo sapiens; MDA-MB-435, Melanoma, five-dose test
Protocol: as §1

MOLT-4 = assay: NCI-60 five-dose SRB assay; assay type: cell-based; details: Homo sapiens; MOLT-4, Leukemia, five-dose test
Protocol: as §1

NCI-H23 = assay: NCI-60 five-dose SRB assay; assay type: cell-based; details: Homo sapiens; NCI-H23, NSCL cancer, five-dose test
Protocol: as §1

NCI-H322M = assay: NCI-60 five-dose SRB assay; assay type: cell-based; details: Homo sapiens, NSCL cancer, five-dose test
Protocol: as §1

NCI-H460 = assay: NCI-60 five-dose SRB assay; assay type: cell-based; details: Homo sapiens; NCI-H460, NSCL cancer, five-dose test
Protocol: as §1

NCI-H522 = assay: NCI-60 five-dose SRB assay; assay type: cell-based; details: Homo sapiens; NCI-H522, NSCL cancer, five-dose test
Protocol: as §1

OVCAR-3 = assay: NCI-60 five-dose SRB assay; assay type: cell-based; details: Homo sapiens; OVCAR-3, Ovarian cancer, five-dose test
Protocol: as §1

OVCAR-5 = assay: NCI-60 five-dose SRB assay; assay type: cell-based; details: Homo sapiens; OVCAR-5, Ovarian cancer, five-dose test
Protocol: as §1

OVCAR-8 = assay: NCI-60 five-dose SRB assay; assay type: cell-based; details: Homo sapiens; OVCAR-8, Ovarian cancer, five-dose test
Protocol: as §1

RXF 393 = assay: NCI-60 five-dose SRB assay; assay type: cell-based; details: Homo sapiens; RXF 393, Renal cancer, five-dose test
Protocol: as §1

SF-295 = assay: NCI-60 five-dose SRB assay; assay type: cell-based; details: Homo sapiens; SF-295, CNS cancer, five-dose test
Protocol: as §1

SF-539 = assay: NCI-60 five-dose SRB assay; assay type: cell-based; details: Homo sapiens; SF-539, CNS cancer, five-dose test
Protocol: as §1

SK-MEL-28 = assay: NCI-60 five-dose SRB assay; assay type: cell-based; details: Homo sapiens; SK-MEL-28, Melanoma, five-dose test
Protocol: as §1

SK-MEL-2 = assay: NCI-60 five-dose SRB assay; assay type: cell-based; details: Homo sapiens; SK-MEL-2, Melanoma, five-dose test
Protocol: as §1

SK-MEL-5 = assay: NCI-60 five-dose SRB assay; assay type: cell-based; details: Homo sapiens; SK-MEL-5, Melanoma, five-dose test
Protocol: as §1

SNB-19 = assay: NCI-60 five-dose SRB assay; assay type: cell-based; details: Homo sapiens; SNB-19, CNS cancer, five-dose test
Protocol: as §1

SNB-75 = assay: NCI-60 five-dose SRB assay; assay type: cell-based; details: Homo sapiens; SNB-75, CNS cancer, five-dose test
Protocol: as §1

UO-31 = assay: NCI-60 five-dose SRB assay; assay type: cell-based; details: Homo sapiens; UO-31, Renal cancer, five-dose test
Protocol: as §1

MDA-MB-231/ATCC = assay: cells; details: Homo sapiens
Protocol: as §1

MDA-MB-468 = assay: cells; details: Homo sapiens
Protocol: as §1

PC-3 = assay: cells; details: Homo sapiens
Protocol: as §1

C-RAF = C-RAF (Homo sapiens, UniProt P04049); assay: HotSpot kinase assay (RBC), C-RAF; details: IC50 C-RAF, 10 µM ATP, 10-dose singlicate IC50 mode
Sequence of C-RAF (P04049 whole entry): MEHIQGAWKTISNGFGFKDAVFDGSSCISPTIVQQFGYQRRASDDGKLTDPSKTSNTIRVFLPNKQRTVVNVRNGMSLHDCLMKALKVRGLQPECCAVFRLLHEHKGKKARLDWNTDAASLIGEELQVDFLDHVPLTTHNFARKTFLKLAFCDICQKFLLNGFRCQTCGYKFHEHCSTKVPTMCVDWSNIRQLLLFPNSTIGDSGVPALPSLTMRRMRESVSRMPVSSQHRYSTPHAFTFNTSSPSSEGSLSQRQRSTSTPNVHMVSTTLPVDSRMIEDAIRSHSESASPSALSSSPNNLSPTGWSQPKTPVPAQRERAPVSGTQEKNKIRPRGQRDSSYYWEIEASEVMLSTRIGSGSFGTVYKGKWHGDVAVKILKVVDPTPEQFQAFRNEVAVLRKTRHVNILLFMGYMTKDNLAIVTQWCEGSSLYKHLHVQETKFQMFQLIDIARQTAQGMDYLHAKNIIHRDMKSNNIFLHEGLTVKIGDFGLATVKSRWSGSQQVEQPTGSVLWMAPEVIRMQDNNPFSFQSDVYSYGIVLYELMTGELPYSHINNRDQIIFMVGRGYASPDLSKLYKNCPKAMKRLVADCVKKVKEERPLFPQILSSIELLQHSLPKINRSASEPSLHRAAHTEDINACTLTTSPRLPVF
From the text: Reaction Biology Corporation (RBC) Kinase HotSpotSM service was utilized for cell-free biochemical kinase evaluation of the target compounds according to the reported assay protocol [46].

T1 sequence (P15056 whole entry V600E): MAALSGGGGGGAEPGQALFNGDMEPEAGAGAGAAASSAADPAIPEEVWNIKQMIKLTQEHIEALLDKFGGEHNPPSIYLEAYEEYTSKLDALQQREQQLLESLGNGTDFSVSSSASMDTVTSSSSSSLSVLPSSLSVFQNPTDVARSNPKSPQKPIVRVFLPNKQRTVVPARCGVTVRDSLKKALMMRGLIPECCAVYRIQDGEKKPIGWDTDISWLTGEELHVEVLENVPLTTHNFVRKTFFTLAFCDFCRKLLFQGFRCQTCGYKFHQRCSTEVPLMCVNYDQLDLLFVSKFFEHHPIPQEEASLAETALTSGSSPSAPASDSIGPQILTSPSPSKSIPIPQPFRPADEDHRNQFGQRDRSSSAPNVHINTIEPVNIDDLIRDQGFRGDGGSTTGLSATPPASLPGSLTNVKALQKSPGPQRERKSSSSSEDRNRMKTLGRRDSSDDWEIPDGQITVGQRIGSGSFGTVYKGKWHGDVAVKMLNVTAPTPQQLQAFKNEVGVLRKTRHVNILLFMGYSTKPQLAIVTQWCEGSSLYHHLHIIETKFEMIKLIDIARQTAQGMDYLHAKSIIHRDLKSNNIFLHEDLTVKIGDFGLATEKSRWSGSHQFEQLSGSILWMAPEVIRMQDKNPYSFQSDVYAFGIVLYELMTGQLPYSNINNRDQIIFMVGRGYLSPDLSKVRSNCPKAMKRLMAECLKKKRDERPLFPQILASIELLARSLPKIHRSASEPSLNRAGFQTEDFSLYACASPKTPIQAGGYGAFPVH

## CN1CCN(Cc2ccc(C(=O)Nc3cccc(Nc4ccc5c(O)cccc5n4)c3)cc2C(F)(F)F)CC1 [Compound 17a, N-(3-((5-hydroxyquinolin-2-yl)amino)phenyl)-4-((4-methylpiperazin-1-yl)methyl)-3-(trifluoromethyl)benzamide]
B-RAF^V600E
  IC50: 0.137 ± 0.0132 µM
786-0
  GI50: 2.11 µM
A498
  GI50: 17.5 µM
BT-549
  GI50: 15.6 µM
CAKI-1
  GI50: 2.13 µM
CCRF-CEM
  GI50: 2.91 µM
COLO 205
  GI50: 1.99 µM
DU-145
  GI50: 4.68 µM
EKVX
  GI50: 3.75 µM
HCC-2998
  GI50: 1.89 µM
HCT-116
  GI50: 2.7 µM
HCT-15
  GI50: 1.82 µM
HOP-92
  GI50: 1.32 µM
HS 578T
  GI50: 2.96 µM
HT29
  GI50: 2.06 µM
IGROV1
  GI50: 4.7 µM
LOX IMVI
  GI50: 1.65 µM
MALME-3M
  GI50: 1.67 µM
MCF7
  GI50: 1.74 µM
MDA-MB-435
  GI50: 1.78 µM
MOLT-4
  GI50: 1.86 µM
NCI-H23
  GI50: 2.26 µM
NCI-H322M
  GI50: 3.23 µM
NCI-H460
  GI50: 2.19 µM
NCI-H522
  GI50: 1.93 µM
OVCAR-3
  GI50: 3.1 µM
OVCAR-5
  GI50: 3.24 µM
OVCAR-8
  GI50: 3.56 µM
RXF 393
  GI50: 1.66 µM
SF-295
  GI50: 1.65 µM
SF-539
  GI50: 1.67 µM
SK-MEL-28
  GI50: 1.77 µM
SK-MEL-2
  GI50: 1.92 µM
SK-MEL-5
  GI50: 1.68 µM
SNB-19
  GI50: 2.39 µM
SNB-75
  GI50: 1.85 µM
UO-31
  GI50: 1.99 µM
MDA-MB-231/ATCC
  GI50: 1.62 µM
MDA-MB-468
  GI50: 1.62 µM
PC-3
  GI50: 2.53 µM
C-RAF
  IC50: 0.095 ± 0.0173 µM
